Data reported in US20120152149A1, “USE OF 1,3-DIOLS AS BIOCIDES” (BASF SE, priority 2009, published 2012).
Where two headings read alike, the source gives them in different places.

Columns and labels:
Type in all cases: cell-based
P. vulgaris NCIMB 4175 = experiment: Microstatic activity, MIC in tryptone soy broth; conditions: Proteus vulgaris, NCIMB4175, 30° C., 48 hours
Procedure, shortened: (§1)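 Diols dissolved at 40 wt% in propylene glycol at 60 °C, diluted in tryptone soy broth to 400 000–3125 ppm, then inoculated (0.1 ml organism per 5 ml). Bacteria incubated 48 h at 30 °C, fungi 5 days at 25 °C. MIC taken as a range between the last concentration showing visible growth/clouding and the first without.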

A. niger IMI 149007 = experiment: Microstatic activity, MIC in tryptone soy broth; conditions: Aspergillus niger, IMI149007, 120 h, 25° C., 5 days
Procedure, shortened: as §1

A. niger ATCC 6275 = experiment: Suspension test EN 1275, fungicidal activity against molds; conditions: 1% active substance in the test
E. coli ATCC 10536 = experiment: Suspension test EN 1040, bactericidal activity; conditions: 1000 ppm of active substance
Method: The bactericidal activity of the substances of this invention was carried out in a suspension test corresponding to the European standard EN 1040 and compared with the activities of customary commercial products. For this, only relatively small modifications were made. The substances of the formula (1) were dissolved in water or ethanol to give a 1% strength stock solution. For determining the bactericidal activities, the test mixtures were selected such that 1000 ppm of active substance was present in an aqueous solution. The procedure was the same with the comparison samples. For the results shown in table 2, the test mixtures were inoculated with the following bacterial strains such that the stated germ densities were present in the test mixtures. E. coli ATCC 10536 1−2×10^7 CFU/ml The test mixtures were incubated at room temperature (22° C.+/−2° C.). After defined contact times, aliquots of 1 ml were taken in order to determine the surviving germ count. For the deactivation of the microbicidal activity of the diols, the aliquots were diluted in 1:10 dilution steps in a solution of TS broth with 10% Tween, 3% lecithin, 0.1% histidines and 0.5% sodium thiosulfate and the 10^−2 and 10^−3 dilution stages were used for determining the surviving germ count. For this purpose, corresponding aliquots were plated out on Caso medium with inhibitor (Merck) and incubated at 37° C. for 24 h. The ascertained surviving germ counts were in each case compared with a mixture containing water (water control) by determining the logarithmic reduction in the surviving germ counts based on the water control.

[1] = tested on: E. coli ATCC 10536, S. aureus ATCC 6538, P. aeruginosa ATCC 15442; experiment: Preservation stress test, example formulation 1 (standard emulsion O/W), bacteria together; conditions: 1% active substance, P. aeruginosa (one time series)
Method: Preservation stress tests (PSTs) were carried out in order to determine the preserving activity of the diols. In the preservation stress test, this is simulated through artificial loadings with microorganisms. These can either be inoculated as mixed population or individually in mixtures independent of one another. The inoculated product samples are incubated under defined conditions and, after defined times, samples are taken in order to determine the germ loading. In the case of adequate preservation, the number of microorganisms should, depending on the type, either decrease or remain constant in order to satisfy the requirements specified, e.g. in Ph. Eur. 6.0. To investigate the preserving effect of the diols, application-typical amounts of the diols were incorporated into example formulations. […] [table] These example formulations were used to prepare various mixtures which each comprised 1% active substance or comprised water instead of the active substance as placebo mixtures. These mixtures were in each case inoculated with the test germs such that a germ loading of 10^5-10^6 CFU/g was present in the test mixture. The bacteria were either used individually for the inoculation or as a mixed culture. To determine the starting germ count, immediately after inoculation, an aliquot was taken, diluted in dilution medium (phosphate buffer, 0.07 molar pH 7.4 (+/−0.2), with 1% Tween 80+0.3% soya lecithin), and the surviving germ count was determined in the dilution stages 10^−1 to 10^−3. The inoculated product samples then incubated for a total of 28 d at 20-25° C. After 2 d, 7 d, 14 d and after 28 d, aliquots were taken and diluted in dilution medium (phosphate buffer, 0.07 molar pH 7.4 (+/−0.2), with 1% Tween 80+0.3% soya lecithin). The surviving germ counts were determined in the dilution stages 10^−1 to 10^−4. The reference point taken for determining the reduction in germ count was the respective initial value of the sample. The results were given as logarithmic reductions.

[2] = lower limit of MIC range, read-out: MIC value (ppm of diol), from
[3] = upper limit of MIC range, read-out: MIC value (ppm of diol), to

MIC (P. vulgaris NCIMB 4175; [2]) [mg/mL] | MIC (P. vulgaris NCIMB 4175; [3]) [mg/mL] | MIC (A. niger IMI 149007; [2]) [mg/mL] | MIC (A. niger IMI 149007; [3]) [mg/mL] | Structure (SMILES) | Microbicidal activity given as logarithmic reduction in germ count (A. niger ATCC 6275; contact time 24 h) [log. red.] | Microbicidal activity given as logarithmic reduction in germ count (A. niger ATCC 6275; contact time 7 d) [log. red.] | Microbicidal activity given as logarithmic reduction in germ count (E. coli ATCC 10536; contact time 5 min) [log. red.] | Microbicidal activity given as logarithmic reduction in germ count (E. coli ATCC 10536; contact time 30 min) [log. red.] | Microbicidal activity given as logarithmic reduction in germ count (E. coli ATCC 10536; contact time 24 h) [log. red.] | Microbicidal activity given as logarithmic reduction in germ count ([1]; 48 h) | Microbicidal activity given as logarithmic reduction in germ count ([1]; 7 d) [log. Red.] | Microbicidal activity given as logarithmic reduction in germ count ([1]; 14 d) [log. Red.] | Microbicidal activity given as logarithmic reduction in germ count ([1]; 28 d) [log. Red.]
> 25 | ≤ 50 | > 12.5 | ≤ 25 | CCCC(O)CO (centres unmarked) [1,2-Pentanediol, 1,2-pentanediol, reference compound] | <1 | <1 | <1 | <1 | <1 |  |  |  | 
> 25 | ≤ 50 | > 6.25 | ≤ 12.5 | CCCCCC(CO)(CO)CCC [PPPD, 2-pentyl-2-propylpropane-1,3-diol] | 2.9 | >4 | >5 | >5 | >5 | ≧3 log. Red. | 5 | 5 | 5

More lines, now with the values behind:

Structure (SMILES) | MIC (P. vulgaris NCIMB 4175; [2]) [mg/mL] | MIC (P. vulgaris NCIMB 4175; [3]) [mg/mL] | MIC (A. niger IMI 149007; [2]) [mg/mL] | MIC (A. niger IMI 149007; [3]) [mg/mL] | Microbicidal activity given as logarithmic reduction in germ count (A. niger ATCC 6275; contact time 24 h) [log. red.] | Microbicidal activity given as logarithmic reduction in germ count (A. niger ATCC 6275; contact time 7 d) [log. red.] | Microbicidal activity given as logarithmic reduction in germ count (E. coli ATCC 10536; contact time 5 min) [log. red.] | Microbicidal activity given as logarithmic reduction in germ count (E. coli ATCC 10536; contact time 30 min) [log. red.] | Microbicidal activity given as logarithmic reduction in germ count (E. coli ATCC 10536; contact time 24 h) [log. red.] | Microbicidal activity given as logarithmic reduction in germ count ([1]; 48 h) | Microbicidal activity given as logarithmic reduction in germ count ([1]; 7 d) [log. Red.] | Microbicidal activity given as logarithmic reduction in germ count ([1]; 14 d) [log. Red.] | Microbicidal activity given as logarithmic reduction in germ count ([1]; 28 d) [log. Red.]
OCC1(CO)CC2CCC1C2 (centres unmarked) [2,2-DMNB, 2,2-dimethylolnorbornane] | > 6.25 | ≤ 12.5 | > 25 | ≤ 50 |  |  |  |  |  | ≧3 log. Red. | 5 | 5 | 5
OCC1(CO)CCCC1 [DMCP, 1,1-dimethylolcyclopentane] | > 12.5 | ≤ 25 | > 50 | ≤ 100 |  |  |  |  |  | 3 log. Red. | 5 | 5 | 5
CC(C)C(C)(CO)CO [IMPD, 2-isopropyl-2-methylpropane-1,3-diol] | > 6.25 | ≤ 12.5 | > 25 | ≤ 50 |  |  |  |  |  | ≧3 log. Red. | 5 | 5 | 5
CCCCCCCCC(C)(CO)CO [OMPD, 2-octyl-2-methylpropane-1,3-diol] | > 50 | ≤ 100 | > 3.12 | ≤ 6.25 | <1 | 2.6 | >5 | >5 | >5 | ≧3 log. Red. | 5 | 5 | 5
